Here are results for three compounds from patent EP0503537B1, “6,9 Bis(substituted-amino)benzo-[g]isoquinoline-5,10-diones” (THE UNIVERSITY OF VERMONT, priority 1991, dated 1992).

Structures are written as SMILES. ≈ marks a conversion by molar mass, not a printed value. Where “and” joins values, the source holds several entries; their conditions need not be identical. Identical values can stand only once. Counter-ions that a name gives are not always drawn. Marks after values point to notes of the source that are not given here.

Data set [1] deals with L1210 murine leukemia. In words: In vivo L1210 murine leukemia (ip/ip, d 1, 5, 9), protocol a, 10^6 cells. Also noted: species or system BDF1 mice. To be noted: days 1, 5 and 9, ip; for %T/C: mean survival time; for LTS: tumor-free at 60 days. How it is done: L 1210 leukemia cells were intraperitoneally (ip) injected in CDFl mice and treatment was initiated approximately 24 hours after tumor transplantation. Dosages of the drugs were administered ip according to preestablished protocols, usually at 4-day intervals. The studies were done over a 60-day period and the date of death for each animal was recorded. The % T/C was determined using the mean survival time (MST) for each group according to the formula % T/C = [(MST treated)/(MST control)] x 100 [formula]
(§1) • a) L1210 murine leukemia cells were maintained in vivo by weekly intraperitoneal (ip) injections of 10^6 cells in BDF1 mice. For test purposes, mice were inoculated i.p. with 10^6 L1210 cells and treatment was initiated 24 hours later. The desired dose of drug was administered on days 1, 5 and 9. Mice were observed daily for signs of toxicity and survival. The date of death was recorded for each animal that died or was sacrificed during the 60-day study. The mean survival time (MST) for each treatment group was calculated and the % T/C was determined using the following formula: % T/C = [(MST treated)/(MST control)] x 100 [formula] The results are reported in table X • b) L1210 murine leukemia cells were maintained in vivo by weekly intraperitoneal (ip) injections of 10^5 cells in DBA2 mice. For test purposes, CDF1 mice were inoculated i.p. with 10^5 L1210 cells and treatment was initiated 24 hours later. The desired dose of drug was administered on days 1, 5 and 9. Mice were observed daily for signs of toxicity and survival. The date of death was recorded for each animal that died or was sacrificed during the 60-day study. The median survival time (MST) for each treatment group was calculated and the % T/C was determined using the following formula: % T/C = [(MST treated)/(MST control)] x 100 [formula]

Data set [2] concerns L1210 Murine leukemia cells. In words: In vitro growth inhibition of L1210 murine leukemia cells (Coulter Counter). Format: cell-based. To be noted: Mus musculus, 72 hours of continuous exposure. How it is done: The "in vitro" cytotoxic evaluation was also performed on L 1210 murine leukemia cells using the above mentioned cells maintained in suspension cultures (McCoy's 5A medium supplemented with 10% horse serum, glutamine, penicillin and streptomycin) grown in an humidified environment of 10% carbon dioxide and 90% air at 37°C. The compounds were dissolved in dimethylsulfoxide (DMSO) and added to the suspended cells in appropriate concentrations. After 72 hours of continuous exposure, the cell concentration was counted using a Coulter Counter and growth inhibition calculated using the formula: % growth inhibition = 1 - [cell number treated/cell number DMSO alone] x 100. [formula]
The IC50 was calculated from the growth inhibition data and they are reported in table VII in comparison to the prior art compound 5a (see table I for structure of 5a).
L1210 Murine leukemia cells were routinely maintained in suspension cultures in McCoy's 5A medium supplemented with 10% horse serum glutamine, penicillin and streptomycin and grown in a humidified environment of 10% carbon dioxide and 90% air at 37°C.
To assess the in vitro toxicity, each compound was dissolved in dimethylsulfoxide and added to 1 ml of L1210 cells (10^5 cells/tube) to attain final concentrations of 0.01, 0.1 and 1 µg of drug/ml of culture. After 72 hours of continues exposure to the drug, the cell concentration was determined with a Coulter Counter. Growth inhibition was calculated for each drug using the following formula: % growth inhibition = 1-[cell number treated/cell number DMSO alone] x 100. [formula]
The growth inhibition data was then used to calculate the IC50 value (the calculated drug concentration required to inhibit cell growth by 50% of control.

Data set [3] relates to murine L 1210 leukemia. To be noted: in vivo, Dose 50 mg/kg; cited from earlier work.
Data set [4] relates to murine L 1210 leukemia. Particulars: in vitro, from J. Med. Chem. (1985), 28, 1124-1126; cited from earlier work.
Data set [5] has as its system P388 Murine Leukemia. Nature of the data set: In vivo P388 murine leukemia (iv/iv, d 1, 4, 7). Particulars: for T/C% (range): median survival time; for LTS: tumor free at 60 days. How it is done:
P388 Murine Leukemia cells were maintained in vivo by serial intraperitoneal (i.p.) injections of 10^6 cells in DBA2 mice. For test purposes, CDF1 mice were inoculated intravenously (i.v.) with 10^6 P388 cells and treatment was initiated 24 hr later. The i.v. dose of drug was administered on days 1, 4 and 7. Mice were observed daily for signs of toxicity and survival. The date of death was recorded for each animal that died or was sacrificed during the 60 day study. The median survival time (MST) for each treatment group was calculated and the % T/C was determined using the following formula: % T/C = [(MST treated)/(MST control)] x 100 [formula]

The subject of data set [6] is human colon adenocarcinoma cell line (Lovo). In words: MTT cytotoxicity assay on human colon adenocarcinoma Lovo cells. Format: cell-based. To be noted: 144 h, read-out: IC50 µg/ml±S.D. LoVo. How it is done: (§2) The evaluation of the "in vitro" cytotoxic activity of the compounds of the invention was performed using a human colon adenocarcinoma cell line (Lovo) isolated from a metastatic nodule and a subline with aquired resistance to a number of antitumor agents, among which doxorubicin, VP-16 and vincristine. […] The compounds were tested according to the MTT assay (Mosman, T., "Rapid Colorimetric assay for cellular growth and survival: application to proliferation and cytotoxicity assay", J. Immunol. Methods, (1983), 65, 55-63; Green, L.M., "Rapid colorimetric assay for cell viability; application to the quantitation of cytotoxic and growth inhibitory lymphokines", J. Immunol. Methods, (1984), 70, 257-268) in comparison with mitoxantrone, ametantrone and doxorubicin.
(§3) In vitro biological evaluation: MTT assay on human colon adenocarcinoma Lovo cells.
(§4) The MTT assay was performed according to Mosmann, T., J. Immunol. Methods, (1983), 65, 55-63 and Green, L. M., J. Immunol. Methods, (1984), 70, 257-268.
(§5) Immediately before use, compounds and reference standards are dissolved in proper solvent and subsequently further diluted in complete culture medium. Human colon adenocarcinoma cells Lovo and the subline resistant to doxorubicin (Lovo/DX) (2.5. 10^4 cells/ml) are plated in 96-well plates and preincubated for 24 hours in culture medium. After this time, the cells are exposed to drugs for 144 hours, then the thiazolyl blue tetrazolium bromide solution (MTT solution) is added and the cells are reincubated for 4 hours. The supernatant is removed and 150 µl of dimethylsulfoxide are added to solubilize formazan crystals. The plate is read at 570 nm with microplate reader and the inhibiting concentration of 50% cellular growth (IC50; µg/ml) is calculated.

Data set [7] deals with Lovo/DX. In words: MTT cytotoxicity assay on doxorubicin-resistant subline Lovo/DX. Format: cell-based, human. How it is done: as §2, §3, §4, §5
Data set [8] concerns P388 Murine Leukemia. Nature of the data set: In vivo ascitic P388 murine leukemia (ip/ip, d 1, 5, 9). More on the design: species or system CDF1 mice. To be noted: for % T/C (range): median survival time; for TOX: toxic deaths/total No. of mice. How it is done: Treatment was initiated approximately 24 hours after tumor transplantation and dosages of the drug were administered ip (P388 ip/ip) or iv (P388 iv/iv) according to preestablished protocols, usually at 3-day (P388 iv/iv) or 4-day (P388 ip/ip) intervals. The studies were done over a 60-day period and the date of death for each animal was recorded. The % T/C was determined using the mean survival time (MST) for each group according to the formula % T/C = [(MST treated)/(MST control)] x 100 [formula]
P388 Murine Leukemia cells were maintained in vivo by serial intraperitoneal (ip) injections of 10^6 cells in DBA2 mice. For test purposes, CDF1 mice were inoculated i.p. with 10^6 P388 cells and treatment was initiated 24 hours later. The i.p dose of drug was administered on days 1, 5 and 9. Mice were observed daily for signs of toxicity and survival. The date of death was recorded for each animal that died or was sacrificed during the 60-day study. The median survival time (MST) for each treatment group was calculated and the % T/C was determined using the following formula: % T/C = [(MST treated)/(MST control)] x 100 [formula]

Data set [9] concerns L1210 murine leukemia. Nature of the data set: In vivo ascitic L1210 murine leukemia (ip/ip, d 1, 5, 9), protocol b, 10^5 cells. Also noted: species or system CDF1 mice. To be noted: for %T/C: median survival time; for TOX: toxic deaths/total No. of mice; for LTS: tumor free at 60 days. How it is done:
Dosages of the drugs were administered ip according to preestablished protocols, usually at 4-day intervals. The studies were done over a 60-day period and the date of death for each animal was recorded. The % T/C was determined using the mean survival time (MST) for each group according to the formula % T/C = [(MST treated)/(MST control)] x 100 [formula]
as §1, with “The mean survival time (MST) for each treatment group was calculated and the % T/C was determined using the following formula: % T/C = [(MST treated)/(MST control)] x 100 [formula] The results are reported in table X • b) L1210 murine leukemia cells were maintained in vivo by weekly intraperitoneal (ip) injections of 10^5 cells in DBA2 mice.” left out

Regarding `CN(C)CCNc1ccc(NCCN(C)C)c2c1C(=O)c1cccnc1C2=O` [Compound 5a, 6,9-bis{[2-(dimethylamino)ethyl]amino}benzo[g]quinoline-5,10-dione, reference compound], the “%T/C” value in data set [1] (Dose 50 mg/kg) is on record as 129%. The compound also returned an IC50 in [2] of 0.155 µg/mL (≈ 0.406 µM). Further, the T/C in [3] is on record as 130. Also, the ID50 in data set [4] is 0.16 µg/mL (≈ 0.419 µM).

With `CN(C)CCNc1ccc(NCCN(C)C)c2c1C(=O)c1ccncc1C2=O` [Compound 10a, 6,9-Bis{[2-(dimethylamino)ethyl]amino}benzo[g]isoquinoline-5,10-dione], the “T/C% (range)” value in data set [5] (18 mg/kg/day iv days 1,4,7) is 172% and 156%; in [5] (27 mg/kg/day iv days 1,4,7), 188% and 167%; in data set [5] (40 mg/kg/day iv days 1,4,7), 183% and 156%. In addition, the LTS in data set [5] (18 mg/kg/day iv days 1,4,7) was 0/14; in data set [5] (27 mg/kg/day iv days 1,4,7), 0/17; in data set [5] (40 mg/kg/day iv days 1,4,7), 0/16. Moreover, the “%T/C” value in data set [1] (Dose 50 mg/kg) is given as 151%. The IC50 was determined as 0.006 µg/mL (≈ 0.0157 µM) in [2]; 0.045 µg/mL (≈ 0.118 µM) in [6]; 0.085 µg/mL (≈ 0.223 µM) in [7] (Homo sapiens, LoVo/DX, MTT assay, 144 hrs drug exposure, read-out: IC50 µg/ml±S.D. LoVo/Dx). Also, the R.I. in [7] (R.I. = (IC50 LoVo/Dx)/(IC50 LoVo)) came out at 1.9. Moreover, in data set [7] (resistant subline Lovo/DX), the “cross resistance with mitoxantrone and ametantrone” value was “no cross resistance”.

As for `NCCNc1ccc(NCCN)c2c1C(=O)c1ccncc1C2=O` [Compound 10i.HCl, 6,9-bis{[2-(amino)ethyl]amino}benzo[g]isoquinoline-5,10-dione], the “LTS (day 60)” value in data set [8] (3.1 mg/kg/day ip days 1,5,9) is reported as 0/8; in data set [8] (6.25 mg/kg/day ip days 1,5,9), 0/8; in data set [8] (12.5 mg/kg/day ip days 1,5,9) it was 0/8; in [8] (25 mg/kg/day ip days 1,5,9), 2/8. For the same compound, the “% T/C (range)” value in [8] (3.1 mg/kg/day ip days 1,5,9) is reported as 144%; in data set [8] (6.25 mg/kg/day ip days 1,5,9), 196%; in data set [8] (12.5 mg/kg/day ip days 1,5,9), 239%; in data set [8] (25 mg/kg/day ip days 1,5,9) it was 367%. Besides, the TOX in [8] (3.1 mg/kg/day ip days 1,5,9) is 0/8; in [8] (6.25 mg/kg/day ip days 1,5,9), 1/8; in data set [8] (12.5 mg/kg/day ip days 1,5,9), 0/8; in data set [8] (25 mg/kg/day ip days 1,5,9), 0/8; in data set [9] (6.25 mg/kg/day ip days 1,5,9), 0/8; in data set [9] (12.5 mg/kg/day ip days 1,5,9) it was 0/8. Also, in [9] (25 mg/kg/day ip days 1,5,9), the TOX is recorded as 1/7. Further, the “%T/C” value is on record as 265% in data set [1] (Dose 12.5 mg/kg); 265% in data set [1] (Dose 25 mg/kg); 156% in [9] (6.25 mg/kg/day ip days 1,5,9); 175% in [9] (12.5 mg/kg/day ip days 1,5,9); 250* % in data set [9] (25 mg/kg/day ip days 1,5,9, value calculated on dead mice). Besides, the LTS in data set [1] (Dose 12.5 mg/kg) is on record as 4/6; in data set [1] (Dose 25 mg/kg), 5/6; in data set [9] (6.25 mg/kg/day ip days 1,5,9), 0/8; in data set [9] (12.5 mg/kg/day ip days 1,5,9), 1/8; in data set [9] (25 mg/kg/day ip days 1,5,9), 4/7. The same compound displayed an IC50 in data set [2] of 0.05 µg/mL.
